Values after ≈ are worked out from the molar mass of the structure shown. Values joined by “and” are separate entries in the source; they are usually repeats but may differ in a detail not shown here. Equal values may be shown once.
Columns and labels:
[1] = tested on: subjects with obstructive HCM; settings: human, in vivo; cited from earlier work
[2] = tested on: isolated adult rat ventricular myocytes; experiment: Counteraction of mavacamten effects by isoproterenol in isolated myocytes in vitro; assay type: cell-based
Description: (§1) Additional supportive measures, e.g., intravenous volume supplementation and/or the use of arterial vasoconstrictor agents (a adrenergic agonists) may complement the use of a β adrenergic agonist.

[3] = tested on: individuals with symptomatic obstructive hypertrophic cardiomyopathy (oHCM); experiment: PIONEER-OLE Phase 2 open-label extension study of mavacamten; assay type: in vivo
Procedure: All subjects were started on a dose of 5 mg QD.
To maximize safety, the starting dose will be 5 mg for all subjects. Subjects will return at Week 4 (±4 days) for a plasma PK sample to measure drug levels and to undergo echocardiography to determine LVOT gradient (at rest, after a Valsalva maneuver, and after exercise) and left ventricular ejection fraction (LVEF).
After Week 6, additional study visits will occur at Week 8 (±7 days), Week 12 (±7 days), and every 12 weeks (±7 days) thereafter. Subjects also will be contacted by phone in between clinic visits, at Week 18 and every 12 weeks thereafter. An end of study (EOS) visit will occur 12 weeks (±7 days) after the last administration of study drug. Visits (including the Screening visit which serves as the baseline) will entail recording vital signs, targeted physical examination, ECGs, safety laboratory tests, N-terminal pro b-type natriuretic peptide (NT-proBNP), adverse events (AEs), New York Heart Association (NYHA) functional class, Kansas City Cardiomyopathy Questionnaire (KCCQ) score, and concomitant medications. At Weeks 4, 8, 24, 36, 48, 60, 72, 96, 120, 144, 156/early termination (ET), and 168/EOS, a predose blood sample for assessment of drug concentration will be obtained. A standard TTE (including but not limited to assessment of LVOT gradient at rest and after Valsalva) will be performed at baseline, at Weeks 4, 8, 12, 24, 36, 48, 72, 96, 120, 144, 156/ET, and 168/EOS. In addition, a stress echocardiogram (with assessment of LVOT gradient post-exercise) will also be performed at baseline, Weeks 4, 48, 72, 156/ET, and 168/EOS.
The study endpoints include safety, tolerability, and select measures of efficacy using individualized dosing. Key measurements include LVOT gradient, LVEF, NT-proBNP.
• 1. Frequency and severity of treatment-emergent AEs and SAEs, • 2. Frequency of cardiovascular (CV) death, • 3. Frequency of sudden death, • 4. Frequency of CV hospitalization, • 5. Frequency of heart failure requiring the initiation of oral loop diuretics or the administration of intravenous loop diuretics, • 6. Frequency of myocardial infarction, • 7. Frequency of ventricular arrhythmias (ventricular tachycardia, ventricular fibrillation, ventricular flutter, torsade de pointe), • 8. Frequency of syncope, • 9. Frequency of seizures, • 10. Frequency of stroke, • 11. Frequency of LVEF≤45% as measured by echocardiography, • 12. QT and QTcF intervals over time.
• 1. Post-exercise, post-Valsalva, and resting LVOT gradient over time, • 2. NYHA functional class over time, • 3. KCCQ scores over time, • 4. NT-proBNP over time, • 5. Frequency of septal reduction therapy.

[4] = API thermodynamic solubility; assay type: physicochemical; settings: thermodynamic from solid
CYP3A4/5 = experiment: In vitro contribution of CYP enzymes to mavacamten metabolism; assay type: in vitro ADME
[5] = tested on: subjects with symptomatic non-obstructive hypertrophic cardiomyopathy (nHCM); experiment: […]-HCM Phase 2 randomized, double-blind, placebo-controlled, concentration-guided study; assay type: in vivo, human; settings: baseline and week 16
anaesthetized rats = experiment: Counteraction of mavacamten effects by dobutamine in anaesthetized rats; assay type: in vivo, rat
Description: as §1

[6] = Change from Baseline to Week 48

In the case of `CC(C)n1c(=O)cc(N[C@@H](C)c2ccccc2)[nH]c1=O` [mavacamten, (S)-3-Isopropyl-6-((1-phenylethyl)amino)pyrimidine-2, 4(1H,3H)-dione], the “Obstruction of the left ventricular outflow tract” value [1] is listed as “reduced or eliminated the obstruction of the left ventricular outflow tract”, the “Reversal of pharmacologic effects by β adrenergic agonist” value [2] is listed as “can be counteracted by β adrenergic agonists” and the “Cardiac-related adverse events (AEs) attributed to study drug” value ([3]; 48-week period) is listed as “no cardiac-related adverse events”. The “E/e′ lateral” value [3, 6] was −3.4, the “NT-proBNP, median” value [3, 6] was -472 pg/mL and the “e′lat, mean ± SD” value [3, 6] was 1.6 cm/s and 1.6 ± 1.1 cm/s. For the same molecule, the IVS ([3]; Change from Baseline to Week 48, Table 1.1) was −1.5 mm, the “E/e′ lateral” value ([3]; Week 12) was 9.8 and the “Interventricular septal thickness, Change from baseline, mean ± SD” value ([3]; Week 12) was −0.7 ± 0.7 mm. The “Interventricular septal thickness, Mean ± SD” value ([3]; Week 12) was 15.9 ± 2.7 mm, the “LV maximum wall thickness, Change from baseline, mean ± SD” value ([3]; Week 12) was −0.8 ± 2.0 mm and the “LV maximum wall thickness, Mean ± SD” value ([3]; Week 12) was 20.1 ± 2.5 mm. The “LV posterior wall thickness, Change from baseline, mean ± SD” value ([3]; Week 12) was 0.2 ± 0.8 mm, the “LV posterior wall thickness, Mean ± SD” value ([3]; Week 12) was 11.9 ± 2.2 mm and the “NT-proBNP, median” value ([3]; Week 12) was 99 pg/mL. For the same molecule, the “Systolic anterior motion of the mitral valve present, %” value (“Systolic anterior motion … %” below) ([3]; Week 12) was “(46.2) %”, the “e′lat, mean ± SD” value ([3]; Week 12) was 8.4 ± 2.3 cm/s and the IVS ([3]; Week 12, Table 1.1) was 16.0 mm. For the same molecule, the “E/e′ lateral” value ([3]; Week 24) was 10.2, the “Interventricular septal thickness, Change from baseline, mean ± SD” value ([3]; Week 24) was −0.7 ± 1.1 mm and the “Interventricular septal thickness, Mean ± SD” value ([3]; Week 24) was 15.8 ± 2.7 mm. The “LV maximum wall thickness, Change from baseline, mean ± SD” value ([3]; Week 24) was −1.8 ± 1.8 mm, the “LV maximum wall thickness, Mean ± SD” value ([3]; Week 24) was 19.1 ± 2.4 mm and the “LV posterior wall thickness, Change from baseline, mean ± SD” value ([3]; Week 24) was 0.2 ± 0.9 mm. The “LV posterior wall thickness, Mean ± SD” value ([3]; Week 24) was 11.8 ± 2.0 mm, the “NT-proBNP, median” value ([3]; Week 24) was 93 pg/mL and the “Systolic anterior motion … %” value ([3]; Week 24) was “(46.2) %”. For the same molecule, the “e′lat, mean ± SD” value ([3]; Week 24) was 7.9 ± 2.2 cm/s, the IVS ([3]; Week 24, Table 1.1) was 15.8 mm and the “E/e′ lateral” value ([3]; Week 36) was 8.5. The “Interventricular septal thickness, Change from baseline, mean ± SD” value ([3]; Week 36) was −1.2 ± 1.7 mm, the “Interventricular septal thickness, Mean ± SD” value ([3]; Week 36) was 15.4 ± 2.7 mm and the “LV maximum wall thickness, Change from baseline, mean ± SD” value ([3]; Week 36) was −1.8 ± 1.9 mm. For the same molecule, the “LV maximum wall thickness, Mean ± SD” value ([3]; Week 36) was 19.0 ± 2.2 mm, the “LV posterior wall thickness, Change from baseline, mean ± SD” value ([3]; Week 36) was 0.0 ± 1.5 mm and the “LV posterior wall thickness, Mean ± SD” value ([3]; Week 36) was 11.7 ± 1.7 mm. For the same molecule, the “NT-proBNP, median” value ([3]; Week 36) was 168 pg/mL, the “Systolic anterior motion … %” value ([3]; Week 36) was “(58.3) %” and the “e′lat, mean ± SD” value ([3]; Week 36) was 8.7 ± 2.8 cm/s. For the same molecule, the IVS ([3]; Week 36, Table 1.1) was 15.4 mm, the “E/e′ lateral” value ([3]; Week 48) was 9.1 and the “Interventricular septal thickness, Change from baseline, mean ± SD” value ([3]; Week 48) was −1.2 ± 2.3 mm. The “Interventricular septal thickness, Mean ± SD” value ([3]; Week 48) was 15.5 ± 2.0 mm, the “LV maximum wall thickness, Change from baseline, mean ± SD” value ([3]; Week 48) was −1.4 ± 2.2 mm and the “LV maximum wall thickness, Mean ± SD” value ([3]; Week 48) was 19.4 ± 2.7 mm. The “LV posterior wall thickness, Change from baseline, mean ± SD” value ([3]; Week 48) was −0.5 ± 1.9 mm, the “LV posterior wall thickness, Mean ± SD” value ([3]; Week 48) was 11.1 ± 1.9 mm and the “NT-proBNP, median” value ([3]; Week 48) was 137 pg/mL. The “Systolic anterior motion … %” value ([3]; Week 48) was “(33.3) %”, the “Valsalva LVOT gradient, mean change” value ([3]; Week 48) was −66.0 mm Hg and the “e′lat, mean ± SD” value ([3]; Week 48) was 8.0 ± 1.6 cm/s. For the same molecule, the “mean resting LVOT gradient” value ([3]; Week 48) was 14.0 mm Hg, the “patients achieving a post-exercise LVOT gradient<30 mm Hg” value ([3]; Week 48) was “Five” and the “post-exercise LVOT gradient, mean change” value ([3]; Week 48) was −85.1 mm Hg. For the same molecule, the “resting LVOT gradient for all subjects” value ([3]; Week 48) was “below 50 mmHg”, the “subjects achieving asymptomatic status (NYHA Class I)” value ([3]; Week 48) was “nine out of twelve” and the “subjects with resting LVOT gradient below the 30 mmHg threshold” value ([3]; Week 48) was 11 of 12. The IVS ([3]; Week 48, Table 1.1) was 15 mm and 15.3 mm, the “Interventricular septal thickness, Change from baseline, mean ± SD” value ([3]; Week 48, listed as Mavacamten) was −1.2 mm and the “LV maximum wall thickness, Change from baseline, mean ± SD” value ([3]; Week 48, listed as Mavacamten) was −1.4 mm. For the same molecule, the KCCQ mean score ([3]; Week 48, scores range 0-100) was 87.3, the “LVEF for all patients” value ([3]; all timepoints throughout the study) was “above 50%” and the “resting LVOT gradient, mean change” value ([3]; baseline to Week 48) was −52.7 mm Hg. For the same molecule, the “Number of AEs considered potentially related to study drug” value ([3]; in 3 subjects) was 8, the “number of SAEs” value ([3]; in 3 subjects, not cardiovascular, not related to study drug) was 4 and the “Number of AEs” value ([3]; most mild or moderate, and transient) was 64. For the same molecule, the Tolerability ([3]; one-year treatment period) was “well tolerated”, the solubility thermodynamic ([4]; DCM, organic solvent or mixture) was 1100 µg/mL (≈ 4.02 mM) and the solubility thermodynamic ([4]; DMF, organic solvent or mixture) was about 130000 µg/mL (≈ 476 mM). It also gave a solubility thermodynamic ([4]; DMSO, organic solvent or mixture) of over 150000 µg/mL, a solubility thermodynamic ([4]; EtOAc, organic solvent or mixture) of 1000 µg/mL (≈ 3.66 mM) and a solubility thermodynamic ([4]; EtOH, organic solvent or mixture) of 7400 µg/mL (≈ 27.1 mM). For the same molecule, the solubility thermodynamic ([4]; NMP, organic solvent or mixture) was over 150000 µg/mL, the solubility thermodynamic ([4]; acetone, organic solvent or mixture) was 3300 µg/mL (≈ 12.1 mM) and the solubility thermodynamic ([4]; acetonitrile, organic solvent or mixture) was 900 µg/mL (≈ 3.29 mM). The solubility thermodynamic ([4]; diethyl ether, organic solvent or mixture) was 50 µg/mL (≈ 0.183 mM), the solubility thermodynamic ([4]; hexanes, organic solvent or mixture) was under 10 µg/mL and the solubility thermodynamic ([4]; n-heptanes, organic solvent or mixture) was under 10 µg/mL. The solubility thermodynamic ([4]; n-hexane, organic solvent or mixture) was under 10 µg/mL, the solubility thermodynamic ([4]; p-dioxane, organic solvent or mixture) was 1200 µg/mL (≈ 4.39 mM) and the solubility thermodynamic ([4]; water) was 10 µg/mL (≈ 0.0366 mM). The “percent contribution to the metabolism of mavacamten” value (CYP3A4/5) was 18%, the “hs-cTnI, post-hoc analysis of banked serum samples” value [5] was “confirmed the reduction in cTnI” and the “Reversal of pharmacologic effects by β adrenergic agonist” value (anaesthetized rats) was “can be counteracted by β adrenergic agonists”.

Source: patent US20260207600A1, “METHODS OF TREATMENT WITH MYOSIN MODULATOR” (MYOKARDIA, INC., priority 2019, published 2026)
